In patent US11919910B2, “Spiropyrrolidine derived antiviral agents” (ENANTA PHARMACEUTICALS, INC., priority 2021, dated 2024):

Key:
SARS-CoV-2 3CL-protease = SARS-CoV-2 3CL-protease (Severe acute respiratory syndrome coronavirus 2, UniProt P0DTD1); assay: SARS-CoV-2 3C-like (3CL) protease fluorescence assay (FRET); format: biochemical; conditions: recombinant SARS-CoV-2 3CL-protease 10 nM, 30 min preincubation at RT, substrate 40 μM, run in duplicate
[1] = format: physicochemical
Description: Step 7: Compound (3-6) (80 mg, 0.167 mmol) and 4,6,7-trifluoro-1H-indole-2-carboxylic acid (36.0 mg, 0.167 mmol) were dissolved in CH2Cl2 (1.393 ml) and DMF (0.279 ml) at 0° C. 4-methylmorpholine (55.1 μl, 0.501 mmol) and HATU (66.7 mg, 0.176 mmol) were added. The mixture was stirred at 0° C. for 3 h, diluted with DCM, and washed with 5% NaHCO3. The organic layer was washed with brine, dried over Na2SO4, and concentrated in vacuo. The crude was purified by chromatography on silica gel (ISCO 4 g) using ethyl acetate/cyclohexane (0-60%) to give a product as a light yellow oil (3-7) (60 mg, 53%). LC-MS, ES−: 674.2 [M-1]. Step 8: To a solution of (3-7) (60 mg, 0.089 mmol) in DCM (2 ml) at 0° C. was added Dess-Martin periodinane (56.5 mg, 0.133 mmol). The mixture was stirred at 0° C. for 3 h, quenched with 10% Na2S2O3, stirred for another 15 min, and extracted with DCM. The combined organic layers were washed with 10% Na2S2O3, Sat. NaHCO3, brine, dried over Na2SO4, and concentrated.

Row | SMILES | IC50 (SARS-CoV-2 3CL-protease) | stability in solution [1]
1 | CC(C)C[C@@H](C(=O)N1C[C@]2(C[C@H]1C(=O)c1nc3ccccc3s1)C(=O)Nc1ccccc12)N(C)C(=O)c1cc2c(F)cc(F)cc2[nH]1 [Example 1] | < 1 µM | –
2 | CC(C)C[C@@H](C(=O)N1C[C@]2(C[C@@H]1C(=O)c1nc3ccccc3s1)C(=O)Nc1ccccc12)N(C)C(=O)c1cc2c(F)cc(F)cc2[nH]1 [Example 2] | > 10 µM | –
3 | CC(C)C[C@@H](C(=O)N1C[C@]2(C[C@H]1C(=O)c1nc3ccccc3s1)C(=O)Nc1ccccc12)N(C)C(=O)c1cc2c(F)cc(F)c(F)c2[nH]1 [Example 3] | > 10 µM | not stable in solution
4 | CC(C)C[C@@H](C(=O)N1C[C@]2(C[C@@H]1C(=O)c1nc3ccccc3s1)C(=O)Nc1ccccc12)N(C)C(=O)c1cc2c(F)cc(F)c(F)c2[nH]1 [Example 4] | > 10 µM | –
5 | CC(C)C[C@@H](C(=O)N1C[C@]2(C[C@H]1C(=O)c1nc3ccccc3s1)C(=O)Nc1ccccc12)N(C)C(=O)OCc1ccccc1 [Example 5] | > 10 µM | –
6 | CC(C)C[C@@H](C(=O)N1C[C@]2(C[C@H]1C(=O)c1nc3ccccc3s1)C(=O)Nc1ccccc12)N(C)C(=O)[C@H](C)NC(=O)OCc1ccccc1 [Example 6] | < 1 µM | –
